Test results reported in publication PMC10269165 (Antimicrobial Agents and Chemotherapy, 2023).
Where two headings read alike, the source gives them in different places.

Key:
[1] = target: AcPMT1 (Ancylostoma duodenale, UniProt A0A0C2DEB6); assay: biochemical; assay type: biochemical; details: for Selectivity index (SI) AcPMT1: IC50^Cytotoxicity/IC50^Enzyme
Description: (§1) The chemical compounds were obtained from the National Cancer Institute/Developmental Therapeutics Program Open Chemical Repository. […] Compounds were individually reconstituted in molecular biology grade dimethyl sulfoxide (DMSO) from Sigma-Aldrich to a stock concentration of 10 mM and stored at −20°C until use. Initial screening was conducted using recombinant HcPMT1 protein as enzyme in the methyltransferase assay, with test compounds at a final concentration of 40 μM. […] To the positive reaction mixture, instead of test compound, an equivalent volume of DMSO was added. In the negative-control reaction mixture, instead of HcPMT1 and test compound, equivalent volumes of 1× transferase buffer and DMSO, respectively, were added. Detection buffer (100 μL) containing fluorescence substrate was added into each reaction mixture. The reactions were prepared in triplicate wells in 96-well plates. The plates were covered in aluminum foil and incubated at room temperature with agitation for 30 min, followed by reading the fluorescence at 380EX/520EM. The mean percent inhibition (MPI) of the test compound on enzymatic activity was calculated using the following formula: MPI = ΔRFUpositive control − ΔRFUcompounds/ΔRFUpositive control × 100, where the positive control is a reaction without compound but with recombinant PMT protein and a volume of DMSO equivalent to that of compound used in test reactions; the negative control is the reaction without protein and compounds, but with volumes of dialysis buffer and DMSO equivalent to protein and compound added in the test reaction mixtures, respectively; ΔRFUpositive control represents the absolute relative fluorescence units (RFU) for the positive control, which equals RFUpositive control – RFUnegative control; and ΔRFUcompounds represents the absolute RFU value for the sample with the compounds, which equals RFUcompounds – RFUnegative control.
(§2) The enzymatic assay was set up as described above, with the respective PMT protein as enzyme.

[2] = target: DvPMT1 (Dictyocaulus viviparus, UniProt A0A0D8Y714); assay: biochemical; assay type: biochemical; details: for Selectivity index (SI) DvPMT1: IC50^Cytotoxicity/IC50^Enzyme
Description: as §1, §2

[3] = target: HcPMT1 (Haemonchus contortus, UniProt U5HK46); assay: biochemical; assay type: biochemical; details: for Selectivity index (SI) HcPMT1: IC50^Cytotoxicity/IC50^Enzyme;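 on Selectivity index (SI) HcPMT1: cytotoxicity IC50 measured in HCT-8 cells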
Description: as §1, §2

[4] = target: OdPMT (Oesophagostomum dentatum, UniProt A0A0B1TAL6); assay: biochemical; assay type: biochemical; details: for Selectivity index (SI) OdPMT: IC50^Cytotoxicity/IC50^Enzyme;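 on Selectivity index (SI) OdPMT: cytotoxicity IC50 measured in HCT-8 cells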
Description: as §1, §2

[5] = target: TcPMT (Toxocara canis, UniProt A0A0B2VTW9); assay: biochemical; assay type: biochemical; details: for Selectivity index (SI) TcPMT: IC50^Cytotoxicity/IC50^Enzyme
Description: as §1, §2

[6] = target: AsPMT (Ascaris suum, UniProt F1L4B9); assay type: biochemical; details: for Selectivity index (SI) AsPMT: IC50^Cytotoxicity/IC50^Enzyme; for IC50: read-out: Mean IC50 ± SEM, Enzyme AsPMT;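 on Selectivity index (SI) AsPMT: cytotoxicity IC50 measured in HCT-8 cells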
Description: as §1, §2

[7] = system: AcPMT1+2-complemented pem1Δ/pem2Δ S. cerevisiae; assay: Growth inhibition of complemented yeast; assay type: cell-based, Saccharomyces cerevisiae; details: read-out: Mean growth inhibition EC50 ± SEM on complemented yeast, AcPMT1+2
Description: (§3) To determine the effect of PMT inhibitors on the growth of PMT- and LacZ-complemented pem1Δpem2Δ S. cerevisiae, the yeast cells were first starved of choline as described above, and the cells were diluted to an OD600 of ~0.6. The PMT-complemented yeast cells were cultured in SG medium (3.4g/L yeast nitrogen base without amino acids, 2% galactose, 30 mg/L histidine, 100 mg/L leucine, 100 mg/L adenine, and 50 mg/L tryptophan) supplemented with 1 mM ethanolamine hydrochloride, while the LacZ-complemented yeast cells were cultured in SG medium supplemented with 1 mM choline chloride. Compounds that depicted cross-inhibitory activity against PMT proteins in vitro were added at various concentrations to the cultures. As a negative control, DMSO (at a final concentration not exceeding 2% [vol/vol]) was added to yeast cultures designated control cultures. The cultures were incubated at 30°C with shaking at 275 rpm for 4 days. On a daily basis during the course of culture, 200-μL portions of culture aliquots were taken, and their OD600s were measured using a microplate reader. In preliminary work, we had observed that the growth of PMT- and LacZ-complemented pem1Δpem2Δ S. cerevisiae plateaued at 3 to 4 days of culture. Therefore, to determine the inhibitory effect of nematode PMT inhibitors on the growth of PMT- and LacZ-complemented pem1Δpem2Δ S. cerevisiae, measurements taken on day 3 were used. The results were presented as percentage of growth rate using the following formula: PGR = growth rate (plus inhibitor)/growth rate (minus inhibitor) × 100 where the percent growth rate (PGR) is the growth rate of inhibitor-treated PMT- or LacZ- complemented Pem1Δpem2Δ S. cerevisiae, considering the growth rate of untreated PMT- or LacZ- complemented Pem1Δpem2Δ S. cerevisiae is 100%; the growth rate = ΔA600^Day 3/ΔA600^Day 0; ΔA600^Day 0 is the absolute value of A600 of PMT- or LacZ- complemented pem1Δ/pem2Δ S. cerevisiae at day 0, which equals the A600 of the culture minus the A600 of the growth medium only; ΔA600^Day 3 is the absolute value of the A600 of PMT- or LacZ complemented pem1Δ/pem2Δ S. cerevisiae at day 3, which equals the A600 of the culture at day 3 minus the A600 of growth medium only; the growth rate (plus inhibitor) is the growth rate of PMT- or -LacZ complemented pem1Δpem2Δ S. cerevisiae in the presence of test compound; and the growth rate (minus inhibitor) is the growth rate of the PMT- or LacZ complemented pem1Δ/pem2Δ S. cerevisiae in the absence of test compound, but with a volume of DMSO equal to that of compound added in the treated culture. The dose-response curves were generated with GraphPad Prism software and IC50 concentrations of the compounds in PMT- and LacZ-complemented yeast cells derived.

[8] = system: AsPMT-complemented pem1Δ/pem2Δ S. cerevisiae; assay: Growth inhibition of complemented yeast; assay type: cell-based, Saccharomyces cerevisiae; details: medium with ethanolamine, no choline, day 3, read-out: Mean growth inhibition EC50 ± SEM on complemented yeast, AsPMT
Description: as §3

[9] = system: DvPMT1+2-complemented pem1Δ/pem2Δ S. cerevisiae; assay: Growth inhibition of complemented yeast; assay type: cell-based, Saccharomyces cerevisiae; details: read-out: Mean growth inhibition EC50 ± SEM on complemented yeast, DvPMT1+2
Description: as §3

[10] = system: LacZ-complemented pem1Δ/pem2Δ S. cerevisiae; assay: Growth inhibition of complemented yeast; assay type: cell-based, Saccharomyces cerevisiae; details: for EC50: Saccharomyces cerevisiae, 72 h, read-out: Mean growth inhibition EC50 ± SEM on complemented yeast, LacZ; for effect on LacZ-expressing mutant yeast: medium with choline
Description: as §3

[11] = system: TcPMT-complemented pem1Δ/pem2Δ S. cerevisiae; assay: Growth inhibition of complemented yeast; assay type: cell-based, Saccharomyces cerevisiae; details: read-out: Mean growth inhibition EC50 ± SEM on complemented yeast, TcPMT
Description: as §3

[12] = read-out: Mean IC50 ± SEM, Enzyme AcPMT1
[13] = read-out: Mean IC50 ± SEM, Enzyme DvPMT1
[14] = read-out: Mean IC50 ± SEM, Enzyme HcPMT1
[15] = read-out: Mean IC50 ± SEM, Enzyme OdPMT
[16] = read-out: Mean IC50 ± SEM, Enzyme TcPMT
[17] = medium with ethanolamine, no choline, day 3
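Wherever Selectivity index (SI) AcPMT1 is given: cytotoxicity IC50 measured in HCT-8 cells.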
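Wherever Selectivity index (SI) DvPMT1 is given: cytotoxicity IC50 measured in HCT-8 cells.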
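Wherever Selectivity index (SI) TcPMT is given: cytotoxicity IC50 measured in HCT-8 cells.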

Chain of HcPMT1 (U5HK46 entry or part of it): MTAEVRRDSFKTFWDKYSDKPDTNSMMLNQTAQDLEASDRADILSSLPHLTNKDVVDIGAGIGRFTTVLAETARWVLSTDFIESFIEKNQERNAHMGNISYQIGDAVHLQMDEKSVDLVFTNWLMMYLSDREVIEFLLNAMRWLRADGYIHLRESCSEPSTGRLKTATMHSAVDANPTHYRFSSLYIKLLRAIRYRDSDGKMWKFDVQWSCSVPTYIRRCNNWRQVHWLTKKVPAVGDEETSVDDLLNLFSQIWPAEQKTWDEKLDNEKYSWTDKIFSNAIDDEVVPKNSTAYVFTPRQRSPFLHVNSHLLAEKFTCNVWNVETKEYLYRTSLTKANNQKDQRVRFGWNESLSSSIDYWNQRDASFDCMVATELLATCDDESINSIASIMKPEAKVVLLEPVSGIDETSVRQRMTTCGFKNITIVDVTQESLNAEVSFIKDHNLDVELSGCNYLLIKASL
Chain of AsPMT (F1L4B9 entry or part of it): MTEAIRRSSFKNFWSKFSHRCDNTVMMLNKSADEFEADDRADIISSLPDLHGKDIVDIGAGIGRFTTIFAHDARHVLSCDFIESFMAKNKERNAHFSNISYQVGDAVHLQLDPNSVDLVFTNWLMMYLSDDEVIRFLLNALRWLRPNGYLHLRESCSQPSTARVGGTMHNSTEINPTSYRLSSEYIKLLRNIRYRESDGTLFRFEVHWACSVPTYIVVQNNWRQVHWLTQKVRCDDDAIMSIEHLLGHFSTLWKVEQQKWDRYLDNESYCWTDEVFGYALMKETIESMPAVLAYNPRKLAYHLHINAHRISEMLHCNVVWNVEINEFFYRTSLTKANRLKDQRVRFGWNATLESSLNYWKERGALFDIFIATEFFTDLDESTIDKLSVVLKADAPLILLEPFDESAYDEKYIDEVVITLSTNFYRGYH
Chain of DvPMT1 (A0A0D8Y714 entry or part of it): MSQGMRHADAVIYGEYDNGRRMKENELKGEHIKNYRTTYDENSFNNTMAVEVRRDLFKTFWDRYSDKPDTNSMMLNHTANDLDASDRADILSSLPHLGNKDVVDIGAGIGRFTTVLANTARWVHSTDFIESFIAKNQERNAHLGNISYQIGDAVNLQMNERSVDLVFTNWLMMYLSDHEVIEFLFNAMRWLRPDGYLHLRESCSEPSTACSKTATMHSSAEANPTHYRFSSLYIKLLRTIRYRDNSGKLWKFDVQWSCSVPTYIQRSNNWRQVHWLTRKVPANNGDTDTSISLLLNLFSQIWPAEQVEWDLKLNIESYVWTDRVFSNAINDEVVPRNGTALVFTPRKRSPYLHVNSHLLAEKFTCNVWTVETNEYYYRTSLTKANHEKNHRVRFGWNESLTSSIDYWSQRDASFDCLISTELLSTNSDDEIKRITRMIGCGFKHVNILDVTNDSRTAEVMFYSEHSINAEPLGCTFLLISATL
Chain of TcPMT (A0A0B2VTW9 entry or part of it): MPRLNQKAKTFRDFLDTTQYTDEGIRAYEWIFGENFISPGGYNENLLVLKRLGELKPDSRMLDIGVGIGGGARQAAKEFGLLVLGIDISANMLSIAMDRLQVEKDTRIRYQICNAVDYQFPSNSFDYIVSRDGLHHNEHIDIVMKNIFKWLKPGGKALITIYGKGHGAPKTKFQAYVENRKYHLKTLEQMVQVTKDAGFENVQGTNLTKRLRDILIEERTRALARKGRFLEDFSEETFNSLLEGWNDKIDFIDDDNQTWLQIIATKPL
Chain of OdPMT (A0A0B1TAL6 entry or part of it): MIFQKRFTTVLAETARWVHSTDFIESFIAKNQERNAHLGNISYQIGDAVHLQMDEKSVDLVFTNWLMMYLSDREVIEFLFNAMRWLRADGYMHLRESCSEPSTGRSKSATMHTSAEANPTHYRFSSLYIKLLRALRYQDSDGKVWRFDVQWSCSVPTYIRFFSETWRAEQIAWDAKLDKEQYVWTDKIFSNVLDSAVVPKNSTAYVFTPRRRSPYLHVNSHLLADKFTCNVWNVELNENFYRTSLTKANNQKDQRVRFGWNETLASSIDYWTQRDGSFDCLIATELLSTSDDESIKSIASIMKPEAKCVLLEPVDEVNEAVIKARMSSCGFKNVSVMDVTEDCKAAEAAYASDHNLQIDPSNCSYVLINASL
Chain of AcPMT1 (A0A0C2DEB6 entry or part of it): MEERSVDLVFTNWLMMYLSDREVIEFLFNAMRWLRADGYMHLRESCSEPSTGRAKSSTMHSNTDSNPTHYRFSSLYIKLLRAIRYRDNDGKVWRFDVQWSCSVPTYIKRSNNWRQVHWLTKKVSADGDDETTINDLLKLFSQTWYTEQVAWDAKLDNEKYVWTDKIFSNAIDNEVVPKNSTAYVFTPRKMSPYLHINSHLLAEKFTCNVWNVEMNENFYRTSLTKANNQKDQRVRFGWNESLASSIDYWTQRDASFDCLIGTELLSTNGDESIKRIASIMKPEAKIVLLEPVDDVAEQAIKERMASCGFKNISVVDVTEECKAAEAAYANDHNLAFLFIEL

SMILES	Selectivity index (SI) AcPMT1 [1]	IC50 [1, 12]	Selectivity index (SI) DvPMT1 [2]	IC50 [2, 13]	Selectivity index (SI) HcPMT1 [3]	IC50 [3, 14]	Selectivity index (SI) OdPMT [4]	IC50 [4, 15]	Selectivity index (SI) TcPMT [5]	IC50 [5, 16]	Selectivity index (SI) AsPMT [6]	IC50 [6]	EC50 ([7]; Saccharomyces cerevisiae, 72 h)	EC50 ([8]; Saccharomyces cerevisiae, 72 h)	EC50 ([9]; Saccharomyces cerevisiae, 72 h)	effect on LacZ-expressing mutant yeast [10]	EC50 [7, 17]	EC50 [8]	EC50 [9, 17]	EC50 [11, 17]	other results
O=c1c(O)cccc2cc(O)c(O)c(O)c12 [NSC35676, purpurogallin]	49.02	11.5 ± 0.94 µM	13.44	42.1 ± 3.16 µM	27.96	20.2 ± 1.64 µM	33.80	16.8 ± 0.41 µM	12.35	45.9 ± 2.9 µM	45.59	12.4 ± 1.1 µM	17.6 ± 3.72 µM	15.1 ± 0.7 µM	12.9 ± 1.58 µM	no or negligible inhibitory effect	–	–	–	–	EC50 [10]: 6.02 ± 0.25 µM; EC50 ([11]; Saccharomyces cerevisiae, 72 h): 22.9 ± 5 µM
CO[C@@]12[C@H](COC(N)=O)C3=C(C(=O)C(C)=C(N)C3=O)N1C[C@H]1[C@@H]2N1C (some centres unmarked) [NSC56410]	2.75	–	0.10	–	3.52	–	0.90	–	2.23	–	3.24	58.1 ± 12.9 µM	40.3 ± 9.42 µM	50.7 ± 3.87 µM	45.6 ± 7.61 µM	no or negligible inhibitory effect	–	–	–	–	IC50 [1]: 68.4 ± 5.39 µM; IC50 [2]: 1920 µM; IC50 [3]: 53.5 ± 5.85 µM; IC50 [4]: 210 ± 73.5 µM; IC50 [5]: 84.5 ± 6.53 µM; EC50 [10]: 50.4 ± 13.2 µM; EC50 ([11]; Saccharomyces cerevisiae, 72 h): 45.1 ± 3.97 µM
COc1ccc(-c2c(C)c(C(=O)O)nc(-c3ccc4c(O)c(OC)c5c(c4n3)=NC(C)(C)N=5)c2N)c(O)c1OC [NSC62709]	22.31	13.4 ± 1.3 µM	10.24	29.2 ± 2.13 µM	10.86	27.5 ± 1.97 µM	9.39	31.8 ± 1.8 µM	10.83	27.6 ± 1.26 µM	6.75	44.3 ± 1.35 µM	–	–	–	no or negligible inhibitory effect	26.9 ± 7.63 µM	15.4 ± 2.13 µM	25.6 ± 5.07 µM	29.8 ± 7.61 µM	–
COc1cc(C)c2c(c1C=O)Oc1c(c(C)c(O)c3c1C(O)OC3=O)OC2=O (centres unmarked) [NSC87511]	2.61	65.8 ± 9.78 µM	0.34	504 ± 188 µM	1.10	157 ± 26 µM	0.35	488 ± 162 µM	0.35	496 ± 184 µM	0.97	177 ± 15.6 µM	–	–	–	no or negligible inhibitory effect	26.4 ± 3.45 µM	25.9 ± 1.24 µM	17.1 ± 1.15 µM	58.2 ± 7 µM	–
CO[C@@H]1/C=C/O[C@@]2(C)Oc3c(C)c(O)c4c(c3C2=O)C(=N[C@@H]2CC[C@@H](O)O[C@H]2C)C=C(NC(=O)/C(C)=C\C(=O)[C@@H]2C[C@@H]2[C@H](O)[C@@H](C)[C@@H](O)[C@@H](C)[C@H](OC(C)=O)[C@@H]1C)C4=O [NSC177383]	5.76	14.8 ± 2.06 µM	1.80	47.6 ± 7.41 µM	3.93	21.7 ± 2.05 µM	3.20	26.7 ± 2 µM	2.07	41.3 ± 2.8 µM	3.47	24.6 ± 1.79 µM	–	–	–	–	21.9 ± 7.31 µM	12.3 ± 1.11 µM	15.4 ± 1.91 µM	11.8 ± 1.43 µM	–
